Source: PubChem BioAssay (NCI)
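Tested at 5 concentrations; 48 h exposure; 96-well plates; endpoints linearly interpolated, else capped at highest concentration. At the GI50, growth is halved. TGI: total growth inhibition.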

What was measured:
Assay in all cases: growth of human tumour cells (NCI), 48 h
SW-620 colon = system: SW-620 colon
SF-539 CNS = system: SF-539 CNS
HOP-92 NSCLC = system: HOP-92 NSCLC
SK-MEL-28 melanoma = system: SK-MEL-28 melanoma
BT-549 breast = system: BT-549 breast
RPMI-8226 leukemia = system: RPMI-8226 leukemia
NCI-H460 lung = system: NCI-H460 lung
SF-268 CNS = system: SF-268 CNS
MALME-3M melanoma = system: MALME-3M melanoma
HOP-62 NSCLC = system: HOP-62 NSCLC
LOX IMVI melanoma = system: LOX IMVI melanoma
PC-3 prostate = system: PC-3 prostate
TK-10 renal = system: TK-10 renal
OVCAR-8 ovarian = system: OVCAR-8 ovarian
A549 NSCLC = system: A549 NSCLC
RXF 393 renal = system: RXF 393 renal
786-0 renal = system: 786-0 renal
MDA-MB-435 = system: MDA-MB-435
HS 578T breast = system: HS 578T breast
SNB-19 CNS = system: SNB-19 CNS
COLO 205 colon = system: COLO 205 colon
SN12C renal = system: SN12C renal
ACHN renal = system: ACHN renal
T-47D breast = system: T-47D breast
OVCAR-4 ovarian = system: OVCAR-4 ovarian
OVCAR-5 ovarian = system: OVCAR-5 ovarian
HCT-116 colon = system: HCT-116 colon
KM12 colon = system: KM12 colon
UACC-257 melanoma = system: UACC-257 melanoma
SK-MEL-2 melanoma = system: SK-MEL-2 melanoma
HCC-2998 colon = system: HCC-2998 colon
EKVX NSCLC = system: EKVX NSCLC
HT29 colon = system: HT29 colon
SK-OV-3 ovarian = system: SK-OV-3 ovarian
SK-MEL-5 melanoma = system: SK-MEL-5 melanoma
NCI/ADR-RES ovarian = system: NCI/ADR-RES ovarian
SF-295 CNS = system: SF-295 CNS
A498 renal = system: A498 renal
UACC-62 melanoma = system: UACC-62 melanoma
HCT-15 colon = system: HCT-15 colon
K-562 leukemia = system: K-562 leukemia
NCI-H23 lung = system: NCI-H23 lung
CCRF-CEM leukemia = system: CCRF-CEM leukemia
HL-60(TB) leukemia = system: HL-60(TB) leukemia
DU-145 prostate = system: DU-145 prostate
MOLT-4 leukemia = system: MOLT-4 leukemia
SNB-75 CNS = system: SNB-75 CNS
U251 CNS = system: U251 CNS
MDA-MB-231 breast = system: MDA-MB-231 breast
MCF7 breast = system: MCF7 breast
NCI-H522 lung = system: NCI-H522 lung
UO-31 renal = system: UO-31 renal
OVCAR-3 ovarian = system: OVCAR-3 ovarian
IGROV1 ovarian = system: IGROV1 ovarian
CAKI-1 renal = system: CAKI-1 renal
NCI-H226 lung = system: NCI-H226 lung
M14 melanoma = system: M14 melanoma

CC(C)(C)CC(C)(C)c1ccc(OCCSC(=N)N)cc1
GI50 (SW-620 colon): 1450 nM | TGI (SW-620 colon): 3340 nM | GI50 (SF-539 CNS): 1750 nM | TGI (SF-539 CNS): 3350 nM | GI50 (HOP-92 NSCLC): 1140 nM | TGI (HOP-92 NSCLC): 2570 nM | GI50 (SK-MEL-28 melanoma): 1700 nM | TGI (SK-MEL-28 melanoma): 3340 nM | GI50 (BT-549 breast): 2020 nM | TGI (BT-549 breast): 4800 nM | GI50 (RPMI-8226 leukemia): 1360 nM | TGI (RPMI-8226 leukemia): 3590 nM | GI50 (NCI-H460 lung): 1890 nM | TGI (NCI-H460 lung): 3870 nM | GI50 (SF-268 CNS): 2010 nM | TGI (SF-268 CNS): 4050 nM | GI50 (MALME-3M melanoma): 1810 nM | TGI (MALME-3M melanoma): 3460 nM | GI50 (HOP-62 NSCLC): 2150 nM | TGI (HOP-62 NSCLC): 4000 nM | GI50 (LOX IMVI melanoma): 1480 nM | TGI (LOX IMVI melanoma): 2920 nM | GI50 (PC-3 prostate): 1610 nM | TGI (PC-3 prostate): 4170 nM | GI50 (TK-10 renal): 1760 nM | TGI (TK-10 renal): 3340 nM | GI50 (OVCAR-8 ovarian): 2080 nM | TGI (OVCAR-8 ovarian): 5080 nM | GI50 (A549 NSCLC): 1910 nM | TGI (A549 NSCLC): 4430 nM | GI50 (RXF 393 renal): 1180 nM | TGI (RXF 393 renal): 2580 nM | GI50 (786-0 renal): 1510 nM | TGI (786-0 renal): 3090 nM | GI50 (MDA-MB-435): 1450 nM | TGI (MDA-MB-435): 2800 nM | GI50 (HS 578T breast): 2150 nM | TGI (HS 578T breast): 5420 nM | GI50 (SNB-19 CNS): 1700 nM | TGI (SNB-19 CNS): 3450 nM | GI50 (COLO 205 colon): 564 nM | TGI (COLO 205 colon): 2010 nM | GI50 (SN12C renal): 1680 nM | TGI (SN12C renal): 3210 nM | GI50 (ACHN renal): 1640 nM | TGI (ACHN renal): 3270 nM | GI50 (T-47D breast): 1630 nM | TGI (T-47D breast): 3910 nM | GI50 (OVCAR-4 ovarian): 1430 nM | TGI (OVCAR-4 ovarian): 2910 nM | GI50 (OVCAR-5 ovarian): 1880 nM | TGI (OVCAR-5 ovarian): 3770 nM | GI50 (HCT-116 colon): 1380 nM | TGI (HCT-116 colon): 2850 nM | GI50 (KM12 colon): 1500 nM | TGI (KM12 colon): 3050 nM | GI50 (UACC-257 melanoma): 1720 nM | TGI (UACC-257 melanoma): 3450 nM | GI50 (SK-MEL-2 melanoma): 1960 nM | TGI (SK-MEL-2 melanoma): 3700 nM | GI50 (HCC-2998 colon): 610 nM | TGI (HCC-2998 colon): 1880 nM | GI50 (EKVX NSCLC): 1410 nM | TGI (EKVX NSCLC): 2980 nM | GI50 (HT29 colon): 417 nM | TGI (HT29 colon): 1850 nM | GI50 (SK-OV-3 ovarian): 2570 nM | TGI (SK-OV-3 ovarian): 5540 nM | GI50 (SK-MEL-5 melanoma): 1370 nM | TGI (SK-MEL-5 melanoma): 2680 nM | GI50 (NCI/ADR-RES ovarian): 1870 nM | TGI (NCI/ADR-RES ovarian): 3880 nM | GI50 (SF-295 CNS): 1690 nM | TGI (SF-295 CNS): 3120 nM | GI50 (A498 renal): 2340 nM | TGI (A498 renal): 11500 nM | GI50 (UACC-62 melanoma): 1720 nM | TGI (UACC-62 melanoma): 3160 nM | GI50 (HCT-15 colon): 1060 nM | TGI (HCT-15 colon): 2380 nM | GI50 (K-562 leukemia): 833 nM | TGI (K-562 leukemia): 3860 nM | GI50 (NCI-H23 lung): 1810 nM | TGI (NCI-H23 lung): 3680 nM | GI50 (CCRF-CEM leukemia): 1990 nM | TGI (CCRF-CEM leukemia): 5320 nM | GI50 (HL-60(TB) leukemia): 1600 nM | TGI (HL-60(TB) leukemia): 3520 nM | GI50 (DU-145 prostate): 1740 nM | TGI (DU-145 prostate): 3220 nM | GI50 (MOLT-4 leukemia): 1700 nM | TGI (MOLT-4 leukemia): 4800 nM | GI50 (SNB-75 CNS): 1430 nM | TGI (SNB-75 CNS): 2790 nM | GI50 (U251 CNS): 1570 nM | TGI (U251 CNS): 3170 nM | GI50 (MDA-MB-231 breast): 1220 nM | TGI (MDA-MB-231 breast): 2800 nM | GI50 (MCF7 breast): 1320 nM | TGI (MCF7 breast): 3000 nM | GI50 (NCI-H522 lung): 1590 nM | TGI (NCI-H522 lung): 3450 nM | GI50 (UO-31 renal): 1580 nM | TGI (UO-31 renal): 3970 nM | GI50 (OVCAR-3 ovarian): 1470 nM | TGI (OVCAR-3 ovarian): 2890 nM | GI50 (IGROV1 ovarian): 2310 nM | TGI (IGROV1 ovarian): 5200 nM | GI50 (CAKI-1 renal): 3130 nM | TGI (CAKI-1 renal): 13600 nM | GI50 (NCI-H226 lung): 1930 nM | TGI (NCI-H226 lung): 5830 nM | GI50 (M14 melanoma): 1680 nM | TGI (M14 melanoma): 3420 nM
